Results from patent US8232407B2, “Nitrogenous heterocyclic compounds with insecticidal activity, and the preparation and use thereof” (East China University of Science and Technology, priority 2008, dated 2012).
Read-outs that look alike come from different tables or passages of the source.

Experiments:
Format in all cases: in vivo
[1] = tested on: Plutella xylostella; assay: Insecticidal activities to diamondback moth, feeding dipped leaves; settings: for Plutella xylostella Mortality (%) 500 ppm: in vivo; for mortality at 500 ppm: Plutella xylostella, read-out: Plutella xylostella Mortality (%) 500 ppm
In short: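 Leaf-dip feeding assay: fresh cabbage leaves dipped 3 s in test solution, air-dried and fed to Plutella xylostella, 10 insects per treatment, three replicates, water control. Deaths counted after 24 h; mortality corrected against survival in the control group.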

[2] = tested on: Nilaparvata lugens; assay: Insecticidal activities to plant hopper, spraying method; settings: for Nilaparvata lugens Mortality (%) 500 ppm: in vivo; for mortality at 500 ppm: Nilaparvata lugens, read-out: Nilaparvata lugens Mortality (%) 500 ppm
In short: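 Nilaparvata lugens, 10 insects per tumbler, sprayed with 2 ml compound in acetone at 0.79-500 ppm, three replicates, aqueous acetone control. Dead insects counted after 24 h; mortality corrected against control survival.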

[3] = tested on: Aphis craccivoral; assay: Insecticidal activities to aphids, immersion method; settings: for Aphis craccivoral Mortality (%) 500 ppm: in vivo; for mortality at 500 ppm: Aphis, read-out: Aphis craccivoral Mortality (%) 500 ppm
In short: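 Wingless adult aphids feeding on bean sprouts were dipped 5 s in 500 ppm compound (DMF stock diluted in 0.2 mL/L aqueous Triton X-100), blotted and held at 23° C. Dead counted at 24 h, three replicates; mortality corrected against Triton-only controls.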

[4] = tested on: Pseudaletia separate Walker; assay: Insecticidal activities to armyworm, leaf dipping and feeding; settings: for Pseudaletia separate Walker Mortality (%) 500 ppm: in vivo; for mortality at 500 ppm: Zea mays, foliar, read-out: Pseudaletia separate Walker Mortality (%) 500 ppm
In short: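 Maize leaves dipped 3 s in acetone-formulated compound at 500 down to 1.57 ppm, dried and fed to armyworms, 10 insects per treatment in triplicate, aqueous acetone as control. Mortality was counted after 24 hours and corrected against control survival.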

SMILES | Plutella xylostella Mortality (%) 500 ppm [1] [%] | Nilaparvata lugens Mortality (%) 500 ppm [2] [%] | Aphis craccivoral Mortality (%) 500 ppm [3] [%] | Pseudaletia separate Walker Mortality (%) 500 ppm [4] [%] | other results
CC(=C(C1=NCCN1Cc1ccc(Cl)nc1)[N+](=O)[O-])c1ccc(C)o1 [Compound 114] | 30 | 100 | 92 | 10 | –
CCc1ccc(C(C)=C(C2=NCCN2Cc2ccc(Cl)nc2)[N+](=O)[O-])o1 [Compound 115] | 96 | 100 | 93 | 79 | –
CC(=C(C1=NCCN1Cc1ccc(Cl)nc1)[N+](=O)[O-])c1ccsc1 [Compound 116] | 64 | 94 | 89 | 76 | –
CC(=C(C1=NCCN1Cc1ccc(Cl)nc1)[N+](=O)[O-])c1ccc([N+](=O)[O-])s1 [Compound 117] | 86 | 88 | 83 | 77 | –
CC(=C(C1=NCCN1Cc1ccc(Cl)nc1)[N+](=O)[O-])c1ccc(Cl)s1 [Compound 118] | 23 | 90 | 93 | 19 | –
CC(=C(C1=NCCN1Cc1ccc(Cl)nc1)[N+](=O)[O-])c1ccc(Br)s1 [Compound 119] | 87 | 91 | 75 | 46 | –
CC(=C(C1=NCCN1Cc1ccc(Cl)nc1)[N+](=O)[O-])c1cc(Cl)cs1 [Compound 120] | 68 | 86 | 52 | 59 | –
N#CC(=Cc1ccco1)C1=NCCN1Cc1ccc(Cl)nc1 [Compound 140] | 100 | 100 | 100 | 100 | –
N#CC(=Cc1ccoc1)C1=NCCN1Cc1ccc(Cl)nc1 [Compound 141] | 100 | 100 | 100 | 100 | –
N#CC(=Cc1ccc([N+](=O)[O-])o1)C1=NCCN1Cc1ccc(Cl)nc1 [Compound 142] | 100 | 100 | 100 | 100 | –
N#CC(=Cc1oc(Cl)cc1Cl)C1=NCCN1Cc1ccc(Cl)nc1 [Compound 143] | 85 | 100 | 75 | 86 | –
N#CC(=Cc1cc(Br)c(Br)o1)C1=NCCN1Cc1ccc(Cl)nc1 [Compound 144] | 100 | 100 | 87 | 90 | –
N#CC(=Cc1ccc(CO)o1)C1=NCCN1Cc1ccc(Cl)nc1 [Compound 145] | 100 | 100 | 92 | 100 | –
N#CC(=Cc1cccs1)C1=NCCN1Cc1ccc(Cl)nc1 [Compound 146] | 100 | 100 | 100 | 100 | –
N#CC(=Cc1ccsc1)C1=NCCN1Cc1ccc(Cl)nc1 [Compound 147] | 100 | 100 | 100 | 100 | –
N#CC(=Cc1cc(Br)cs1)C1=NCCN1Cc1ccc(Cl)nc1 [Compound 148] | 100 | 100 | 97 | 100 | –

SMILES | Plutella xylostella Mortality (%) 500 ppm [1] [%] | Nilaparvata lugens Mortality (%) 500 ppm [2] [%] | Aphis craccivoral Mortality (%) 500 ppm [3] [%] | Pseudaletia separate Walker Mortality (%) 500 ppm [4] [%] | other results
N#CC(=Cc1cc(Cl)c(Cl)s1)C1=NCCN1Cc1ccc(Cl)nc1 [Compound 149] | 100 | 100 | 94 | 97 | –
N#CC(=Cc1sc(Cl)cc1Cl)C1=NCCN1Cc1ccc(Cl)nc1 [Compound 150] | – | – | – | – | Plutella xylostella Mortality (%) ([1]; 500 ppm, feeding dipped cabbage leaves, counted after 24 hours): 100%; Nilaparvata lugens Mortality (%) ([2]; 500 ppm, spraying method, counted after 24 hours): 100%; Aphis craccivoral Mortality (%) ([3]; 500 ppm, immersion method): 95%; Pseudaletia separate Walker Mortality (%) ([4]; 500 ppm, maize leaf dipping and feeding, counted after 24 hours): 100%
CCN(Cc1ccc(Cl)nc1)C(=N\C)/C(=C\c1ccco1)[N+](=O)[O-] [Compound 151, N-((6-chloropyridin-3-yl)methyl)-N-ethyl-3-(furan-2-yl)-N′-methyl-2-nitro acrylamidine] | – | – | – | – | mortality at 500 ppm ([1]; in Brassica oleracea, 24 h): 79%; mortality at 500 ppm ([2]; 24 h): 87%; mortality at 500 ppm ([3]; 24 h): 76%; mortality at 500 ppm ([4]; 24 h): 86%
CCN(Cc1ccc(Cl)nc1)C(=N\C)/C(=C\c1ccc[nH]1)[N+](=O)[O-] [Compound 160, N-((6-chloropyridin-3-yl)methyl)-N-ethyl-N′-methyl-2-nitro-3-(1H-pyrrol-2-yl) acrylamidine] | – | – | – | – | mortality at 500 ppm ([1]; 500 ppm, dipped cabbage leaves fed, counted after 24 hours): 100%; mortality at 500 ppm ([2]; 500 ppm, spraying, counted after 24 hours): 54%; mortality at 500 ppm ([3]; 500 ppm, immersion 5 seconds, counted after 24 hours): 56%; mortality at 500 ppm ([4]; 500 ppm, dipped maize leaves fed, counted after 24 hours): 64%
C[N+]1=C(C(=Cc2ccco2)[N+](=O)[O-])N(Cc2ccc(Cl)nc2)CC1.[Cl-] [Compound 244] | 100 | 100 | 100 | 100 | –
C[N+]1=C(C(=Cc2ccoc2)[N+](=O)[O-])N(Cc2ccc(Cl)nc2)CC1.[Cl-] [Compound 245] | 100 | 100 | 100 | 100 | –
C[N+]1=C(C(=Cc2ccc([N+](=O)[O-])o2)[N+](=O)[O-])N(Cc2ccc(Cl)nc2)CC1.[Cl-] [Compound 246] | 100 | 100 | 100 | 100 | –
C[N+]1=C(C(=Cc2ccc(Cl)o2)[N+](=O)[O-])N(Cc2ccc(Cl)nc2)CC1.[Cl-] [Compound 247] | 100 | 100 | 100 | 100 | –
C[N+]1=C(C(=Cc2ccc(Br)o2)[N+](=O)[O-])N(Cc2ccc(Cl)nc2)CC1.[Cl-] [Compound 248] | 100 | 100 | 100 | 100 | –
C[N+]1=C(C(=Cc2cc(Cl)co2)[N+](=O)[O-])N(Cc2ccc(Cl)nc2)CC1.[Cl-] [Compound 249] | 100 | 100 | 100 | 100 | –
C[N+]1=C(C(=Cc2cc(Br)co2)[N+](=O)[O-])N(Cc2ccc(Cl)nc2)CC1.[Cl-] [Compound 250] | 100 | 100 | 100 | 100 | –
C[N+]1=C(C(=Cc2cc(Cl)c(Cl)o2)[N+](=O)[O-])N(Cc2ccc(Cl)nc2)CC1.[Cl-] [Compound 251] | 100 | 100 | 100 | 100 | –
C[N+]1=C(C(=Cc2oc(Cl)cc2Cl)[N+](=O)[O-])N(Cc2ccc(Cl)nc2)CC1.[Cl-] [Compound 252] | 100 | 100 | 100 | 100 | –
C[N+]1=C(C(=Cc2cc(Br)c(Br)o2)[N+](=O)[O-])N(Cc2ccc(Cl)nc2)CC1.[Cl-] [Compound 253] | 100 | 100 | 100 | 100 | –
C[N+]1=C(C(=Cc2oc(Br)cc2Br)[N+](=O)[O-])N(Cc2ccc(Cl)nc2)CC1.[Cl-] [Compound 254] | 100 | 100 | 100 | 100 | –
